Measured values reported in ChEMBL document CHEMBL1926637, “Stereoselective synthesis and QSAR study of cytotoxic 2-(4-oxo-thiazolidin-2-ylidene)-2-cyano-N-arylacetamides” (Eur J Med Chem, 2012).

Experiments:
Type in all cases: functional, cell-based
[1] = test system: HCT-116; experiment: Cytotoxicity against human HCT116 cells after 48 hrs by sulforhodamine B assay; conditions: HCT-116, 48 h
[2] = test system: HepG2; experiment: Cytotoxicity against human HepG2 cells after 48 hrs by sulforhodamine B assay; conditions: HepG2, 48 h
[3] = test system: MCF7; experiment: Cytotoxicity against human MCF7 cells after 48 hrs by sulforhodamine B assay; conditions: MCF7, 48 h

For COc1ccc(/C=c2\s/c(=C(/C#N)C(=O)Nc3ccc(C)cc3)n(-c3ccccc3)c2=O)cc1, the IC50 [1] was 9.95 µM, the IC50 [2] was 37.4 µM and the IC50 [3] was greater than 107 µM.

COc1cccc2c1C(=O)c1c(O)c3c(c(O)c1C2=O)C[C@@](O)(C(=O)CO)C[C@@H]3O[C@H]1C[C@H](N)[C@H](O)[C@H](C)O1 [DOXORUBICIN] showed an IC50 [1] of 6.86 µM and an IC50 [2] of 7.36 µM.

With N#C/C(C(=O)Nc1ccccc1)=C1/S/C(=N\Nc2ccccc2)C(=O)N1c1ccccc1 the IC50 [1] was greater than 114 µM and the IC50 [2] was 18.8 µM.

Work on N#C/C(C(=O)Nc1ccc(Cl)cc1)=c1/s/c(=C\c2ccccc2O)c(=O)n1-c1ccccc1 yielded an IC50 [1] of 6.92 µM, an IC50 [2] of 12.4 µM and an IC50 [3] of 7.89 µM.

Compound N#C/C(C(=O)Nc1ccc(Cl)cc1)=c1/s/c(=C\c2ccccc2)c(=O)n1-c1ccccc1 has an IC50 [1] of 38.9 µM, an IC50 [2] of 49.1 µM and an IC50 [3] of 77.5 µM.

Compound N#C/C(C(=O)Nc1ccccc1)=c1/s/c(=C\c2ccccc2)c(=O)n1-c1ccccc1 has an IC50 [1] of 33.3 µM, an IC50 [2] of 11 µM and an IC50 [3] of 75.3 µM.

In the case of COc1ccc(N/N=C2\S/C(=C(/C#N)C(=O)Nc3ccc(C)cc3)N(c3ccccc3)C2=O)cc1, the IC50 [1] is reported as greater than 103 µM and the IC50 [2] is reported as 34.1 µM.

Compound Cc1ccc(NC(=O)/C(C#N)=c2\s/c(=C\c3ccccc3O)c(=O)n2-c2ccccc2)cc1 has an IC50 [1] of 6.92 µM, an IC50 [2] of 8.25 µM and an IC50 [3] greater than 110 µM.

Cc1ccc(NC(=O)/C(C#N)=c2\s/c(=C\c3ccccc3)c(=O)n2-c2ccccc2)cc1 was tested, and the IC50 [1] was 11 µM, the IC50 [2] was 38.2 µM and the IC50 [3] was 55.5 µM.

COc1ccc(/C=c2\s/c(=C(/C#N)C(=O)Nc3ccccc3)n(-c3ccccc3)c2=O)cc1 gave an IC50 [1] of 6.61 µM, an IC50 [2] of 30.4 µM and an IC50 [3] of 7.89 µM.

For Cc1ccc(NC(=O)/C(C#N)=C2\S/C(=N\Nc3ccc(Cl)cc3)C(=O)N2c2ccccc2)cc1, the IC50 [1] was 14.9 µM and the IC50 [3] was greater than 102 µM.

For N#C/C(C(=O)Nc1ccc(Cl)cc1)=c1/s/c(=C\c2ccc(Cl)cc2)c(=O)n1-c1ccccc1, the IC50 [1] was 9.15 µM, the IC50 [2] was greater than 102 µM and the IC50 [3] was greater than 102 µM.

Cc1ccc(NC(=O)/C(C#N)=c2\s/c(=C\c3ccc(Cl)cc3)c(=O)n2-c2ccccc2)cc1 was tested, and the IC50 [1] was 28.4 µM, the IC50 [2] was 48.3 µM and the IC50 [3] was 28.6 µM.

COc1ccc(N/N=C2\S/C(=C(/C#N)C(=O)Nc3ccccc3)N(c3ccccc3)C2=O)cc1 was tested, and the IC50 [1] was 46.4 µM and the IC50 [3] was 17.6 µM.

With N#C/C(C(=O)Nc1ccccc1)=c1/s/c(=C\c2ccccc2O)c(=O)n1-c1ccccc1 the IC50 [1] was 7.8 µM, the IC50 [2] was 83 µM and the IC50 [3] was 8.85 µM.

Work on Cc1ccc(NC(=O)/C(C#N)=C2\S/C(=N\Nc3ccccc3)C(=O)N2c2ccccc2)cc1 yielded an IC50 [1] greater than 110 µM and an IC50 [2] of 24.2 µM.
